This is an account of results in patent US20260007715A1, “WOUND CARE DEVICE” (priority 2019, published 2026).

Entries after “also recorded” stand apart in the source; their conditions may differ. Where no end group is shown, it is not given here.

One assay deals with plasmatic coagulation. Conditions: literature, Int. J. Mol. Sci. 2019, 20, 5426; cited from earlier work.
The next assay relates to Horse blood. The experiment in a line: Blood coagulation on hydrogel samples with different peptides, whole horse blood test (Experiment 3). It counts as cell-based. The note with it: citrated horse blood recalcified, 60 min at 37° C., washed three times with PBS, duplicate. Here is the method:
Hydrogels were functionalized with 4 different types of antimicrobial peptides (AMPs). The AMPs used were PGLa, LL-37, Temporin B and RRP9W4. As control hydrogels without any attached AMPs were used.
Fresh citrated Horse blood was purchased from Håtunalab AB, Sweden and used to show how if presence of AMPs can induce clotting. In an Eppendorf tube, 1 ml of blood with 0.1 ml of 250 Mm calcium chloride (to reverse the citrate anticoagulant) was added and mixed.
Samples were placed in 24 well plate and conditioned by adding 1 ml PBS to the hydrogels. After 15 minutes the samples were transferred to the Eppendorf tubes containing the blood. The tubes were then placed on shaker and incubated for 60 min at 37° C.
As blank controls, 1 ml of blood was added to an Eppendorf tube without any hydrogels and treated with the same conditions. […] Samples were run in duplicate.

Consider “LL-37: human cathelicidin derived LL-37 peptide (LLGDFFRKSKEKIGKEFKRIVQRIKDFLRNLVPRTES; Antibacterial peptide LL-37; UniProt P49913 134-170, looked up)”, for which the “effect on plasmatic coagulation” value in the assay with plasmatic coagulation is given as “not to affect plasmatic coagulation”. Moreover, in the assay with Horse blood, the “Observations (clot on hydrogel)” value is reported as “no clot formation; also recorded: did not form a strong clot; also recorded: No visible clot was observed”.

In the case of “RRPRPRPRPWWWW-NH2 [RRP9W4, PRELP derived antimicrobial peptide]”, the “Observations (clot on hydrogel)” value in the assay with Horse blood is on record as “large visible clot; also recorded: surprising clotting effect; also recorded: Big clot with firm attachment onto the surface”.
